From patent publication US20240382509A1, “Cannabinoids C- and O-glycosides possessing anti-proliferative and anti-metastatic properties and process for preparation thereof” (Council of Scientific and Industrial Research, priority 2021, published 2024)

Columns and labels:
Panc-1 cells = assay: MTT cell viability assay, Panc-1; assay type: cell-based; conditions: Homo sapiens, PANC-1, 48 h, read-out: Cytotoxicity (IC50) Panc-1, MTT, 48 h; pancreatic cancer cells
Experimental: (§1) Cell viability assay: The cell viability was determined by the standard MTT assay method. Briefly, Panc-1, HCT-116, A549, PC3, MIAPaca-2, HT-29, MDA-MB-231, MCF7 cells, and fR2cells were seeded in 96 well tissue culture plates (Nunc) at a density of 4×10^3 cells per well and treated with varying concentrations of the test compounds in triplicates. DMSO was taken as a vehicle, and its final concentration was maintained at 0.2% in the culture medium. Doxorubicin was employed as a positive control. After 44 h of incubation, MTT dye solution was added into the medium, and cells were incubated for another 4 h at 37° C. in 5% CO2. The amount of colored formazan derivatives formed was measured by taking optical density (OD) using a microplate reader (TECAN, Infinite M200 Pro) at 570 nm, and the percentage of cell viability was calculated. The IC50 values were calculated using GraphPad Prism software (Version 5.0).

HCT-116 cells [1] = assay: MTT cell viability assay, HCT-116; assay type: cell-based; conditions: Homo sapiens, HCT-116, 48 h, read-out: Cytotoxicity (IC50) HCT-116, MTT, 48 h; colorectal adenocarcinoma cells
Experimental: as §1

[2] = MTT cell viability assay, fR2 normal epithelial cells; assay type: cell-based, human; conditions: human, fR2 normal epithelial cells; MTT, 48 h; normal epithelial cell line; read-out: Cytotoxicity (IC50) fR2
Experimental: as §1

fR2 cells = assay: as above; assay type: cell-based, human; conditions: in vitro
Experimental: as §1

MIAPaCa-2 cells [3] = assay: Cell scatter assay; assay type: cell-based, human; conditions: MIAPaCa-2, 1, 2, 3 μM, 36 h, compared to vehicle and parent molecule
Experimental: Cell scatter assay MIAPaCa-2 cells were seeded onto a 12 well plate at a seeding density of 500 cells/well and kept for 4-5 days, and there was the formation of scatter colonies since the cell line itself is a metastatic cell line. Accordingly, they were treated with 1 μM, 2 μM & 3 μM of compound 2, 2a, 2b, 3, 3a, 4, 4a & 4b for 36 h, and upon termination, they were washed with PBS and observed under an inverted microscope at 20× magnification (FIG. 3).

[4] = test system: Snail-1, Twist-1, Vimentin and E-cadherin in MIAPaCa-2 cells; assay: Western blot of EMT markers; assay type: cell-based, human; conditions: 36 h, immunoblot
Experimental: Western Blot analysis. Briefly, MIAPaCa-2 cells were seeded in a 60 mm petri dish and maintained up to 70% confluency; afterward, the cells were treated with compound 2a (0.5, 1.5, 3 & 5 μM) for 36 h. After treatment, the cells were harvested washed thrice with ice-cold PBS and were subjected to protein lysis with lysis buffer (HEPES 1 mM/L, KCl 60 mM/L, NP-40 0.3%, EDTA 1 mM/L, DTT 1 mM/L, sodium orthovanadate 1 mM/L, PMSF 0.1 mM/L and cocktail protease inhibitor). The lysis product was centrifuged at 12000 rpm for 15 min at 4° C. to remove the cellular debris, and the supernatants were collected. Total protein was estimated with the help of the Bradford method. An equal amount of protein was subjected to SDS-PAGE, and consequently, after the protein was separated on SDS-PAGE based on their molecular weight, they were transferred onto the PVDF membrane. The membrane was blocked with 5% BSA and incubated in primary antibody prepared in 5% BSA (dilution ranging from 1:1000-1:2000) for 2-3 h. […] After washing with TBST, the protein expression was quantified by adding a chemiluminescent substrate on the membrane, and the signal obtained was captured in Biomax light x-ray films.
Now this particular derivative was further analysed for its ability to inhibit the molecular signatures of EMT. […]

MIAPaCa-2 cells [5] = assay: Phase contrast microscopy of cell morphology; assay type: cell-based, human; conditions: MIAPaCa-2, 0.5 μM to 5 μM
[6] = test system: γH2AX, RAD-51, BCL-2, Bax, caspase-3 in HCT-116 cells; assay: Immunoblot after combinatorial treatment of 5FU and compound 2a; assay type: cell-based
Text: The effect of the compound 2a in combination with DNA damaging drug 5-Fluorouracil in colon adenocarcinoma cells was studied. […] Consequently, the major repair factor RAD-51 got diminished as compared to 5FU alone treated lane. The immunoblot results also depicted the downmodulation of cellular survival factor BCL-2 and subsequent upregulation of proapoptotic protein Bax (FIG. 8a). […] Moreover, the effect of the combinatorial treatment on chromosomal stability in HCT-116 cells by chromosome isolation and staining was studied.
(§2) The DNA damaging effect of compound 2a in combination with subtoxic doses of 5FU was further analyzed by Annexin/PI staining to check the activation of programmed cell death. […] Cumulatively, compound 2a elevated the DNA damaging effect and eventually leads to programmed cell death in combination with subtoxic doses of 5FU (FIG. 9b).

HCT-116 cells [7] = assay: Annexin V/PI staining for apoptosis (FACS); assay type: cell-based; conditions: HCT-116, 750 nM 5FU+3 μM 2a
Experimental: 1×10^6 HCT-116 cells were seeded in 60 mm Petri dish and treated with vehicle, 3 μM 2a, 750 nM 5FU and 750 nM 5FU+3 μM 2a for indicated time points. After treatment termination, the cells were carefully trypsinized and the palette obtained were resuspended in 600 μL of binding buffer (10 mM HEPES [N-2-hydroxyethylpiperazine-N-2-ethanesulfonicacid], 140 mM NaCl, and 2.5 mM CaCl2, pH 7.4). Subsequently, the cells were stained with 6 μL of AnnexinV-FITC and 10 μL of propidium iodide for 20 min at room temperature in the dark. The samples were immediately analyzed by FACS (BD Accuri C6), and the scatter plot was obtained by BD Accuri C6 software.
as §2

[8] = HCT-116, 2a in combination with 5FU

SMILES: CCCCCc1cc(O[C@@H]2OC(CO)[C@@H](O)C(O)C2O)c2c(c1)OC(C)(C)[C@@H]1CCC(C)=C[C@@H]21 (stereo partly drawn) [Compound 2a, Δ^9-tetrahydrocannabinol-1-O-β-D-glucopyranoside]
- IC50 (Panc-1 cells): 3 µM
- IC50 (HCT-116 cells [1]): 2.1 µM
- IC50 at 48 h [2]: > 100 µM
- toxicity towards normal human breast epithelial cells (fR2 cells): non-toxic
- cell scattering (MIAPaCa-2 cells [3]): typical clumping of scatter cells
- expression of Snail-1, Twist-1 and Vimentin ([4]; MIAPaCa-2, 0.5, 1.5, 3 and 5 μM): significant down modulation
- expression of E-cadherin ([4]; MIAPaCa-2, from 1.5 to 5 μM): upregulated
- mesenchymal (fibroblastic) morphology (MIAPaCa-2 cells [5]): gradual loss of mesenchymal (fibroblastic) morphology
- caspase-3 cleavage ([6]; HCT-116, 2a in association with 5FU, 48 and 60 h): incite caspase-3 cleavage
- BCL-2 survival factor [6, 8]: downmodulation
- proapoptotic protein Bax [6, 8]: upregulation
- expression of γH2AX protein (immunoblot) ([6]; HCT-116, 2a in combination with 5FU, 36 and 48 h): enhanced expression
- RAD-51 repair factor ([6]; HCT-116, 2a in combination with 5FU, compared to 5FU alone): diminished
- apoptosis (Annexin+/PI+) (HCT-116 cells [7]): induction of late phase of apoptosis
